# Assay results as given in US11523980B2, “Use of a peptide for the treatment of epiderm” (Sederma, priority 2018, dated 2022).
# Marks after values point to notes of the source that are not given here. Residues, ends and D or L forms follow the SMILES beside them. *: point of attachment. Palmitoyl = CCCCCCCCCCCCCCCC(=O)*
# What was measured:
# [1] = system: normal human keratinocytes (NHK); assay: DNA-Array, mRNA expression in confluent keratinocytes; type: cell-based; conditions: 4 ppm
# Method: The following in vitro tests were performed on epidermal cells: normal human keratinocytes (NHK) or on skin explant or on reconstructed skin. The peptide according to the invention was tested, in solution in an inert solvent (ethanol), at recommended concentrations of use on the skin. The peptide according to the invention was contacted for 6 or 24 h with confluent KHN (n=3). Then the KHN mats were rinsed and the cells were crushed to extract their mRNAs. These mRNAs are then converted into small DNA sequences which are analyzed after deposition on DNA chips and amplification by a method similar to qRT-PCR (Real-Time Quantitative Reverse Transcription Polymerase Chain Reaction). The mRNA variations due to the peptide are compared to the control case (peptide solvent).
# filaggrin gene = assay: qRT-PCR analysis of filaggrin gene expression; type: cell-based, human
# From the text: The genes of loricrin, filaggrin and filaggrin 2, three proteins involved in the building of the corneocyte or the moisturisation of the Stratum corneum, were statistically better expressed than in the solvent control (p<0.01). […] 3.66 times compared to control (p<0.01).
# [2] = system: normal human keratinocytes (NHK); assay: LC-MS/MS study of proteins in NHK culture (7 days); type: cell-based; conditions: 4 ppm
# From the text: The same culture protocol as for the DNA-Array (1.1/above) was used but with a longer culture time (7 days), the protein productions taking longer to be detected with this LC-MS/MS method. The NHK culture medium (n=3) was changed every 3 days. At the end of this contact, the cells were lysed so as to extract the proteins and to analyze them in the form of crushed material by a method associating the action of a protease on the crushed material, the separation of the fragments by coupled liquid chromatography to mass spectrometry, then the identification and concentration of pre-existing proteins according to the nature and quantity of fragments obtained (LC-MS/MS). To conduct LC-MS/MS analysis on equivalent amounts of protein, the protein concentration was measured on the crushed material.
# (§1) A study of the variances and a Student's t test were carried out in order to judge the significance of the results.
# [3] = system: α-crystallin protein in reconstructed skin epidermis; assay: α-crystallin immunohistology on reconstructed skins; type: cell-based, human; conditions: for α-cristallin % of variation/control: reconstructed skin epidermis, 24 hours then following 18 days
# Method: Normal human fibroblasts were seeded in a matrix. A few days after keratinocytes were deposited on this equivalent dermis to form a uniform layer of cells. At this stage the whole was passed to an air-liquid interface (emersion) so as to form a pluristratified epidermis. After 21 days (approximately), a mature skin equivalent was obtained (with an epidermis comprising the stratum corneum).
# On the eve of the emergence phase, the layer of confluent human keratinocytes of these skins received the peptide according to the invention for 24 hours and then for the following 18 days (period of formation of the epidermis). Cryo-sections (7 μm) were made and the α-crystallin was labeled with fluorescent antibodies (immunohistology). The fluorescence was analyzed in photos, an equivalent surface was analyzed for all the photographs (n=51-59). Student's t test was performed.
# [4] = system: normal human keratinocytes (NHK); assay: Immunocytochemistry of differentiation markers and ceramides in NHK; type: cell-based; conditions: 2 ppm, 7 days
# Method: Confluent NHKs (n=3) were cultured as previously for 7 days in the presence or absence (control) of the peptide according to the invention, then immunocytochemistry markings were carried out using antibodies directed against proteins characteristic of the maturation of the epidermis: involucrin, loricrin and filaggrin, or of moisturizing: filaggrin, as well as ceramides (structuring elements of the Stratum corneum).
# (§2) A quantification of the number of cells was carried out in parallel for the 4 tests described in this part, so as to reduce the results to the number of cells.
# [5] = system: hyaluronic acid secretion in NHK; assay: Hyaluronic acid secretion by keratinocytes (ELISA); type: cell-based, human; conditions: for Hyaluronic acid % of variatio/control: ELISA
# Method: The moisturizing aspect was evaluated by the assay of hyaluronic acid produced by keratinocytes by an ELISA method.
# as §2
# transglutaminases = assay: Transglutaminase activity (fluorescent dansylcadaverine) in NHK; type: cell-based, human; conditions: contact up to 21 days
# Method: (§3) Finally, the influence of the peptide according to the invention on the activity of transglutaminases and on the expression of the transglutaminase-5 gene was evaluated.
# For this, confluent NHKs were brought into contact with the peptide according to the invention up to 21 days. Transglutaminase activity was assessed using a protocol using fluorescent dansylcadaverine which is bound to Stratum corneum proteins by these enzymes. An analysis of the fluorescence was performed, and the results compared to the solvent control.
# as §2
# transglutaminase-5 gene = assay: Transglutaminase-5 gene expression (qRT-PCR) in KHN; type: cell-based, human; conditions: 72 hours of contact
# Method: as §3
# With regard to transglutaminase-5, a qRT-PCR was performed after 72 hours of contact between the KHN and the peptide according to the invention.
# as §2
# confluent keratinocytes = assay: Intracellular calcium mobilization in confluent keratinocytes (fluorescent calcium probe); type: cell-based, human; conditions: 6 or 15 ppm; visible after about 30 minutes of contact
# Method: Confluent keratinocytes were loaded with a specific calcium probe. This molecule becomes very fluorescent in the presence of intracellular free calcium. The appearance of fluorescence under the microscope was monitored. The cells, once loaded, were rinsed and then received the peptide according to the invention at 6 or 15 ppm or a positive control (bradykinin).
# A study of the variances and a t test of Student were carried out in order to judge the significance of the results (n=3 for each condition).
# Lnc-RNA ANCR = Lnc-RNA ANCR expression (qRT-PCR) in confluent keratinocytes; type: cell-based, human; conditions: 24 h
# Method: In this test confluent keratinocytes were contacted with the peptide according to the invention for 24 hours, then the cells were rinsed, ground and their RNAs were extracted, converted into DNA and then analyzed by qRT-PCR.
# A study of the variances and a Student's t-test were carried out in order to judge the significance of the results (n=4 for each condition).
# desmoglein = assay: Desmoglein fluorescence immunohistology on abdominal skin explant; type: cell-based, human; conditions: cream containing 6 ppm applied daily, 6 days, vs placebo cream
# From the text: (§4) Desmoglein was searched on sections of abdominal skin (person) who had received a cream containing 6 ppm of the peptide according to the invention or the placebo cream. After 6 days (cream applied daily), the skins were frozen and sectioned to look for desmoglein using antibodies against this protein (fluorescence immunohistology). Photos were captured using a fluorescence microscope and the images analyzed using suitable software. The results were compared to those of the placebo cream.
# KLK5 (kallikrein 5) = assay: KLK5 fluorescence immunohistology on abdominal skin explant; type: cell-based, human; conditions: cream containing 6 ppm applied daily, 6 days, vs placebo cream
# From the text: as §4
# The same sections as those used for desmoglein, as well as the same method (fluorescence immunohistology) were used to analyze and quantify the effect of the peptide according to the invention on this desquamation marker.
# NHKs exposed to UVB = assay: Secretome of pro-inflammatory mediators by NHKs exposed to UVB (ELISA); type: cell-based, human; conditions: NHK + UVB
# Method: To test the active, keratinocytes were cultured under mild stress conditions (application of UVB radiation) so as to mimic experimental micro-inflammation of the skin. In this situation a significant decrease in their secretome of inflammation mediators will be interpreted in the sense of a repairing and protective action of the skin.
# NHKs in culture and at confluence were brought into contact with the peptide according to the invention (or its solvent) for 24 hours in a medium allowing their survival, then the mats were irradiated with UVB in a physiological buffer and placed back into contact with products to be tested for 24 hours. At the end of this incubation, the culture media were assayed by ELISA in order to know the quantities of pro-inflammatory mediators produced by these cells in response to irradiation. The results were compared with solvent control +/−irradiation. A cellular respiration test was conducted to evaluate the number of cells and standardize the results.
# as §1
compound,measurement,setting,value
"CCCCCCCCCCCCCCCC(=O)NC(CCCCN)C(=O)NC(C(=O)NC(Cc1ccccc1)C(=O)NC(CCCCN)C(=O)O)C(C)O (stereo not shown) [peptide according to the invention, palmitoyl-lysyl-threonyl-phenylalanyl-lysine] (Palmitoyl-KTFK-OH; configuration not given here)",Toxic effects,[1]; 6 or 24 h contact,No toxic effects were noted.
same,Increase in production of mRNA coding for TRPC6 compared with the solvent control,[1]; 6 h,6.05 ×
same,Variation with respect to the control of expression of gene coding for Filaggrin,[1]; 6 hours contact,×2.32 *
same,Variation with respect to the control of expression of gene coding for Filaggrin 2,[1]; 6 hours contact,×2.42 *
same,Variation with respect to the control of expression of gene coding for Loricrin,[1]; 6 hours contact,×2.97 *
same,Variation with respect to the control of expression of gene coding for LCE2D,[1]; 24 hours contact,×1.84 **
same,Variation with respect to the control of expression of gene coding for LCE3B,[1]; 24 hours contact,×2.13 **
same,Variation with respect to the control of expression of gene coding for LCE3C,[1]; 24 hours contact,×3.25 **
same,Variation with respect to the control of expression of gene coding for LCE3D,[1]; 24 hours contact,×2.06 **
same,Variation with respect to the control of expression of gene coding for LCE3E,[1]; 24 hours contact,×2.33 **
same,Variation with respect to the control of expression of gene coding for SPRR2B,[1]; 24 hours contact,×2.13 **
same,Variation with respect to the control of expression of gene coding for SPRR2C,[1]; 24 hours contact,×1.58 **
same,Increase of filaggrin gene expression compared to control (qRT-PCR),filaggrin gene; 4 ppm,2.87 times
same,Increase of filaggrin gene expression compared to control (qRT-PCR),filaggrin gene; 6 ppm,3.66 times
same,Toxic effects,[2],No toxic effects were noted.
same,Variation with respect to the control of protein Filaggrin,[2]; LC-MS/MS,×4.16
same,Variation with respect to the control of protein Keratin 10,[2]; LC-MS/MS,×1.46
same,Variation with respect to the control of protein NICE-1,[2]; LC-MS/MS,×3.42
same,Variation with respect to the control of protein SPRR1A,[2]; LC-MS/MS,×1.55
same,Variation with respect to the control of protein α-cristallin,[2]; LC-MS/MS,×2.19
same,Toxic effects,"[3]; 4 and 6 ppm, reconstructed skin",No toxic effects were noted.
same,α-cristallin % of variation/control,[3]; 4 ppm,+61%; p < 0.01
same,α-cristallin % of variation/control,[3]; 6 ppm,+164%; p < 0.01
same,Toxic effects,[4],No toxic effects were noted.
same,Ceramides % of variation/control,[4]; immunofluorescence,+334%;
same,Filaggrin % of variation/control,[4]; immunofluorescence,+554%;
same,Involucrin % of variation/control,[4]; immunofluorescence,+60%;
same,Loricrin % of variation/control,[4]; immunofluorescence,+261%;
same,Toxic effects,[5]; 4 and 6 ppm,No toxic effects were noted.
same,Hyaluronic acid % of variatio/control,[5]; 4 ppm,+40%; p < 0.01
same,Hyaluronic acid % of variatio/control,[5]; 6 ppm,+91%; p < 0.01
same,Transglutaminase Intra-KHN activity % of variation/control,transglutaminases; 4 ppm,+45%; p < 0.01
same,Transglutaminase Intra-KHN activity % of variation/control,transglutaminases; 6 ppm,+107%; p < 0.01
same,Transglutaminase-5 Gene expression % of variation/control,transglutaminase-5 gene; 4 ppm,+133%; p < 0.01
same,Transglutaminase-5 Gene expression % of variation/control,transglutaminase-5 gene; 6 ppm,+798%; p < 0.01
same,"Intracellular calcium mobilization (visual, fluorescence microscope)",confluent keratinocytes,induces an intracellular calcium mobilization
same,ANCR ratio % of variation/control,Lnc-RNA ANCR; 4 ppm,−27%; p < 0.05
same,ANCR ratio % of variation/control,Lnc-RNA ANCR; 6 ppm,−34%; p < 0.01
same,Desmogleine % of variation/control,desmoglein,+24%; p < 0.01
same,KLK5 % of variation/control,KLK5 (kallikrein 5),+258%; p < 0.01
same,IL-1α % of variation/control,NHKs exposed to UVB; 2 ppm,−15%
same,IL-1β % of variation/control,NHKs exposed to UVB; 2 ppm,−14%
same,IL-6 % of variation/control,NHKs exposed to UVB; 2 ppm,−12%
same,PGE2 % of variation/control,NHKs exposed to UVB; 2 ppm,−31%
same,TNF-α % of variation/control,NHKs exposed to UVB; 2 ppm,−10%
same,IL-1α % of variation/control,NHKs exposed to UVB; 4 ppm,−38%
same,IL-1β % of variation/control,NHKs exposed to UVB; 4 ppm,−43%
same,IL-6 % of variation/control,NHKs exposed to UVB; 4 ppm,−70%
same,PGE2 % of variation/control,NHKs exposed to UVB; 4 ppm,−59%
same,TNF-α % of variation/control,NHKs exposed to UVB; 4 ppm,−56%
same,IL-1α % of variation/control,NHKs exposed to UVB; 6 ppm,−46%
same,IL-1β % of variation/control,NHKs exposed to UVB; 6 ppm,−54%
same,IL-6 % of variation/control,NHKs exposed to UVB; 6 ppm,−84%
same,PGE2 % of variation/control,NHKs exposed to UVB; 6 ppm,−74%
same,TNF-α % of variation/control,NHKs exposed to UVB; 6 ppm,−71%
